From ChEMBL document CHEMBL3885861, “Open TG-GATES”

Species: Rattus norvegicus
Experiment: Open TG-GATES - Regimen: Single
Type: toxicity, organism-based, Sprague-Dawley
Design: regimen Single, gender Male, age 6 weeks
Conditions: in vivo, po, 0 mg/kg, route gavage, dose level Control; for APTT / Bas / Eos / Fbg / Hb / Ht / Lym / MCHC / MCV / Mono / Neu / PT / Plat / RBC / Ret / WBC: tissue Blood; for KIDNEY_L / KIDNEY_R / KIDNEY_TOTAL: tissue Kidney; for LIVER: tissue Liver; for ALP / ALT / AST / BUN / CRE / DBIL / GLC / IP / K / LDH / Na / PL / RALB / TBIL / TC / TG / TP / gamma-GTP: tissue Plasma

C#C[C@]1(O)CC[C@H]2[C@@H]3CCC4=Cc5oncc5C[C@]4(C)[C@H]3CC[C@@]21C [DANAZOL]
TERMINAL_BW (3 h): 212.9 g | APTT (3 h): 23 s | Bas (3 h): 0% | Eos (3 h): 1% | Fbg (3 h): 292.6 mg/dL | Hb (3 h): 13.2 g/dL | Ht (3 h): 40% | Lym (3 h): 77.2% | MCHC (3 h): 33.1% | MCV (3 h): 62.5 fL | Mono (3 h): 2.4% | Neu (3 h): 19.6% | PT (3 h): 15.8 s | Plat (3 h): 111.7 x10_4/uL | RBC (3 h): 641.4 x10_4/ul | Ret (3 h): 7% | WBC (3 h): 76.3 x10_2/uL | KIDNEY_L (3 h): 0.9 g | KIDNEY_R (3 h): 0.9 g | KIDNEY_TOTAL (3 h): 1.9 g | LIVER (3 h): 10.1 g | ALP (3 h): 1527.4 IU/L | ALT (3 h): 41.8 IU/L | AST (3 h): 78.2 IU/L | BUN (3 h): 14.2 mg/dL | CRE (3 h): 0.1 mg/dL | DBIL (3 h): 0 mg/dL | GLC (3 h): 187.6 mg/dL | IP (3 h): 7.9 mg/dL | K (3 h): 4.1 meq/L | LDH (3 h): 204.4 IU/L | Na (3 h): 142.8 meq/L | PL (3 h): 131.8 mg/dL | RALB (3 h): 3 g/dL | TBIL (3 h): 0.01 mg/dL | TC (3 h): 76.8 mg/dL | TG (3 h): 70.8 mg/dL | TP (3 h): 5.5 g/dL | gamma-GTP (3 h): 2 IU/L | TERMINAL_BW (6 h): 212.9 g | APTT (6 h): 23.5 s | Bas (6 h): 0% | Eos (6 h): 1% | Fbg (6 h): 300.6 mg/dL | Hb (6 h): 13.1 g/dL | Ht (6 h): 39.8% | Lym (6 h): 81.2% | MCHC (6 h): 32.8% | MCV (6 h): 63 fL | Mono (6 h): 2.2% | Neu (6 h): 14.8% | PT (6 h): 16.1 s | Plat (6 h): 114.9 x10_4/uL | RBC (6 h): 632 x10_4/ul | Ret (6 h): 7.2% | WBC (6 h): 105 x10_2/uL | KIDNEY_L (6 h): 0.9 g | KIDNEY_R (6 h): 1 g | KIDNEY_TOTAL (6 h): 1.9 g | LIVER (6 h): 9.1 g | ALP (6 h): 1276.8 IU/L | ALT (6 h): 39.4 IU/L | AST (6 h): 73.4 IU/L | BUN (6 h): 9.2 mg/dL | CRE (6 h): 0.1 mg/dL | DBIL (6 h): 0 mg/dL | GLC (6 h): 182 mg/dL | IP (6 h): 9 mg/dL | K (6 h): 4.3 meq/L | LDH (6 h): 168.6 IU/L | Na (6 h): 141 meq/L | PL (6 h): 118.2 mg/dL | RALB (6 h): 3 g/dL | TBIL (6 h): 0.02 mg/dL | TC (6 h): 65.4 mg/dL | TG (6 h): 49.4 mg/dL | TP (6 h): 5.3 g/dL | gamma-GTP (6 h): 1.4 IU/L | TERMINAL_BW (9 h): 209.9 g | APTT (9 h): 22.7 s | Bas (9 h): 0% | Eos (9 h): 0.2% | Fbg (9 h): 295.4 mg/dL | Hb (9 h): 13.3 g/dL | Ht (9 h): 40.9% | Lym (9 h): 83% | MCHC (9 h): 32.5% | MCV (9 h): 64 fL | Mono (9 h): 2% | Neu (9 h): 13.6% | PT (9 h): 16.3 s | Plat (9 h): 114.3 x10_4/uL | RBC (9 h): 639.2 x10_4/ul | Ret (9 h): 7.6% | WBC (9 h): 87.3 x10_2/uL | KIDNEY_L (9 h): 1 g | KIDNEY_R (9 h): 1 g | KIDNEY_TOTAL (9 h): 2 g | LIVER (9 h): 9.1 g | ALP (9 h): 1266 IU/L | ALT (9 h): 33.2 IU/L | AST (9 h): 63.6 IU/L | BUN (9 h): 11.2 mg/dL | CRE (9 h): 0.1 mg/dL | DBIL (9 h): 0 mg/dL | GLC (9 h): 199.8 mg/dL | IP (9 h): 10.1 mg/dL | K (9 h): 4.2 meq/L | LDH (9 h): 144.2 IU/L | Na (9 h): 141.8 meq/L | PL (9 h): 124 mg/dL | RALB (9 h): 2.9 g/dL | TBIL (9 h): 0.016 mg/dL | TC (9 h): 69.8 mg/dL | TG (9 h): 54.8 mg/dL | TP (9 h): 5.4 g/dL | gamma-GTP (9 h): 1.2 IU/L | TERMINAL_BW (24 h): 231.9 g | APTT (24 h): 23.6 s | Bas (24 h): 0% | Eos (24 h): 0.8% | Fbg (24 h): 281 mg/dL | Hb (24 h): 13.3 g/dL | Ht (24 h): 40.2% | Lym (24 h): 81.4% | MCHC (24 h): 32.9% | MCV (24 h): 63.2 fL | Mono (24 h): 2.2% | Neu (24 h): 14.8% | PT (24 h): 15.7 s | Plat (24 h): 114.7 x10_4/uL | RBC (24 h): 637.4 x10_4/ul | Ret (24 h): 7.3% | WBC (24 h): 102.5 x10_2/uL | KIDNEY_L (24 h): 1 g | KIDNEY_R (24 h): 1 g | KIDNEY_TOTAL (24 h): 2.1 g | LIVER (24 h): 11.3 g | ALP (24 h): 1604 IU/L | ALT (24 h): 48.2 IU/L | AST (24 h): 74.8 IU/L | BUN (24 h): 18.6 mg/dL | CRE (24 h): 0.1 mg/dL | DBIL (24 h): 0 mg/dL | GLC (24 h): 197.8 mg/dL | IP (24 h): 7.8 mg/dL | K (24 h): 4.2 meq/L | LDH (24 h): 173.8 IU/L | Na (24 h): 142.2 meq/L | PL (24 h): 140 mg/dL | RALB (24 h): 3 g/dL | TBIL (24 h): 0.006 mg/dL | TC (24 h): 74.6 mg/dL | TG (24 h): 93 mg/dL | TP (24 h): 5.5 g/dL
